In patent US20150148234A1, “HERBICIDE-RESISTANT SUNFLOWER PLANTS WITH MULTIPLE HERBICIDE RESISTANT ALLELES OF AHASL1 AND METHODS OF USE” (NIDERA S.A., priority 2013, published 2015):

Legend:
Experiment in all cases: imazapyr whole plant greenhouse test (Example 2)
Format in all cases: in vivo
[1] = system: sunflower line L4, A122T
Experimental: (§1) Seeds were sown in Petri dishes and, after germination, plantlets were transplanted to pots of 10 cm of diameter in a potting media consisting of equal parts of vermiculite, soil and sand. Plants were grown in a greenhouse under natural light conditions supplemented with 400 W sodium halide lamps to provide a 16 hr daylength. Day/night temperatures were 25 and 20 ° C., respectively. At the V2-V4 stage (Schneiter & Miller (1981) Crop Sci. 21:901-903) 10 plants of each genotype were randomly assigned to each treatment consisting of eight imazapyr doses (0, 40, 80, 160, 240, 320, 400 and 480 g ai/ha, corresponding to untreated, 0.5×, 1×, 2×, 3×, 4×, 5× and 6×, respectively), and a zero-time biomass determination. Experiment was arranged as a randomized block design with a full factorial (sunflower line×treatment) arrangement of treatments and 10 replications.
(§2) On the day of herbicide application ten plants of each genotype were cut at the cotyledonal node and dried at 60° C. for 48 hrs for zero-time dried weight determination.
(§3) The remaining plants were maintained for 14 days after imazapyr treatment (DAT) and their height, Phytotoxicity Index (PI) and above ground dry biomass were determined Height was determined as the distance between the cotyledonal node and the apex of each plant. Above ground biomass data from each line were converted to biomass accumulation after application by subtracting the appropriate average zero- time biomass from each sample. Dry biomass data were converted to percentages of the untreated control plants within each line to allow direct comparisons between groups.

[2] = system: sunflower line L3 (cmsGM40), A122T
Experimental: as §1, §2, §3

[3] = system: sunflower line L5 (BTK 47), susceptible, WT; details: L5
Experimental: as §1, §2, §3

SMILES: CC(C)C1(C)N=C(c2ncccc2C(=O)O)NC1=O (stereo not drawn) [imazapyr]
- Phytotoxicity Index (0-9) 14 days after treatment ([1]; dose 0.5 (0.5x, 40 g ai/ha)): 0.0
- biomass accumulation 14 days after treatment, % of untreated ([1]; dose 0.5 (0.5x, 40 g ai/ha)): 100.0%
- plant height 14 days after treatment, % of untreated ([1]; dose 0.5 (0.5x, 40 g ai/ha)): 100.0%
- Phytotoxicity Index (0-9) 14 days after treatment ([1]; dose 1 (1x, 80 g ai/ha)): 0.0
- biomass accumulation 14 days after treatment, % of untreated ([1]; dose 1 (1x, 80 g ai/ha)): 99.1%
- plant height 14 days after treatment, % of untreated ([1]; dose 1 (1x, 80 g ai/ha)): 100.0%
- Phytotoxicity Index (0-9) 14 days after treatment ([1]; dose 2 (2x, 160 g ai/ha)): 0.0
- biomass accumulation 14 days after treatment, % of untreated ([1]; dose 2 (2x, 160 g ai/ha)): 97.0%
- plant height 14 days after treatment, % of untreated ([1]; dose 2 (2x, 160 g ai/ha)): 101.8%
- Phytotoxicity Index (0-9) 14 days after treatment ([1]; dose 3 (3x, 240 g ai/ha)): 0.0
- biomass accumulation 14 days after treatment, % of untreated ([1]; dose 3 (3x, 240 g ai/ha)): 96.1%
- plant height 14 days after treatment, % of untreated ([1]; dose 3 (3x, 240 g ai/ha)): 97.0%
- Phytotoxicity Index (0-9) 14 days after treatment ([1]; dose 4 (4x, 320 g ai/ha)): 0.0
- biomass accumulation 14 days after treatment, % of untreated ([1]; dose 4 (4x, 320 g ai/ha)): 84.3%
- plant height 14 days after treatment, % of untreated ([1]; dose 4 (4x, 320 g ai/ha)): 92.1%
- Phytotoxicity Index (0-9) 14 days after treatment ([1]; dose 5 (5x, 400 g ai/ha)): 0.0
- biomass accumulation 14 days after treatment, % of untreated ([1]; dose 5 (5x, 400 g ai/ha)): 77.5%
- plant height 14 days after treatment, % of untreated ([1]; dose 5 (5x, 400 g ai/ha)): 84.8%
- Phytotoxicity Index (0-9) 14 days after treatment ([1]; dose 6 (6x, 480 g ai/ha)): 0.5
- biomass accumulation 14 days after treatment, % of untreated ([1]; dose 6 (6x, 480 g ai/ha)): 70.7%
- plant height 14 days after treatment, % of untreated ([1]; dose 6 (6x, 480 g ai/ha)): 79.8%
- Phytotoxicity Index (0-9) 14 days after treatment ([2]; dose 0.5 (0.5x, 40 g ai/ha)): 0.4
- biomass accumulation 14 days after treatment, % of untreated ([2]; dose 0.5 (0.5x, 40 g ai/ha)): 96.6%
- plant height 14 days after treatment, % of untreated ([2]; dose 0.5 (0.5x, 40 g ai/ha)): 100.4%
- Phytotoxicity Index (0-9) 14 days after treatment ([2]; dose 1 (1x, 80 g ai/ha)): 0.4
- biomass accumulation 14 days after treatment, % of untreated ([2]; dose 1 (1x, 80 g ai/ha)): 93.9%
- plant height 14 days after treatment, % of untreated ([2]; dose 1 (1x, 80 g ai/ha)): 99.9%
- Phytotoxicity Index (0-9) 14 days after treatment ([2]; dose 2 (2x, 160 g ai/ha)): 0.4
- biomass accumulation 14 days after treatment, % of untreated ([2]; dose 2 (2x, 160 g ai/ha)): 81.6%
- plant height 14 days after treatment, % of untreated ([2]; dose 2 (2x, 160 g ai/ha)): 92.0%
- Phytotoxicity Index (0-9) 14 days after treatment ([2]; dose 3 (3x, 240 g ai/ha)): 0.5
- biomass accumulation 14 days after treatment, % of untreated ([2]; dose 3 (3x, 240 g ai/ha)): 75.8%
- plant height 14 days after treatment, % of untreated ([2]; dose 3 (3x, 240 g ai/ha)): 90.5%
- Phytotoxicity Index (0-9) 14 days after treatment ([2]; dose 4 (4x, 320 g ai/ha)): 1.0
- biomass accumulation 14 days after treatment, % of untreated ([2]; dose 4 (4x, 320 g ai/ha)): 75.0%
- plant height 14 days after treatment, % of untreated ([2]; dose 4 (4x, 320 g ai/ha)): 90.8%
- Phytotoxicity Index (0-9) 14 days after treatment ([2]; dose 5 (5x, 400 g ai/ha)): 2.0
- biomass accumulation 14 days after treatment, % of untreated ([2]; dose 5 (5x, 400 g ai/ha)): 60.1%
- plant height 14 days after treatment, % of untreated ([2]; dose 5 (5x, 400 g ai/ha)): 84.4%
- Phytotoxicity Index (0-9) 14 days after treatment ([2]; dose 6 (6x, 480 g ai/ha)): 2.5
- biomass accumulation 14 days after treatment, % of untreated ([2]; dose 6 (6x, 480 g ai/ha)): 59.6%
- plant height 14 days after treatment, % of untreated ([2]; dose 6 (6x, 480 g ai/ha)): 84.4%
- Phytotoxicity Index (0-9) 14 days after treatment ([3]; dose 0.5 (0.5x, 40 g ai/ha)): 9
- biomass accumulation 14 days after treatment, % of untreated ([3]; dose 0.5 (0.5x, 40 g ai/ha)): 18.3%
- plant height 14 days after treatment, % of untreated ([3]; dose 0.5 (0.5x, 40 g ai/ha)): 20.14%
- Phytotoxicity Index (0-9) 14 days after treatment ([3]; dose 1 (1x, 80 g ai/ha)): 9
- biomass accumulation 14 days after treatment, % of untreated ([3]; dose 1 (1x, 80 g ai/ha)): 15.0%
- plant height 14 days after treatment, % of untreated ([3]; dose 1 (1x, 80 g ai/ha)): 14.58%
- Phytotoxicity Index (0-9) 14 days after treatment ([3]; dose 2 (2x, 160 g ai/ha)): 9
- biomass accumulation 14 days after treatment, % of untreated ([3]; dose 2 (2x, 160 g ai/ha)): 15.0%
- plant height 14 days after treatment, % of untreated ([3]; dose 2 (2x, 160 g ai/ha)): 14.58%
- Phytotoxicity Index (0-9) 14 days after treatment ([3]; dose 3 (3x, 240 g ai/ha)): 9
- biomass accumulation 14 days after treatment, % of untreated ([3]; dose 3 (3x, 240 g ai/ha)): 15.0%
- plant height 14 days after treatment, % of untreated ([3]; dose 3 (3x, 240 g ai/ha)): 14.58%
- Phytotoxicity Index (0-9) 14 days after treatment ([3]; dose 4 (4x, 320 g ai/ha)): 9
- biomass accumulation 14 days after treatment, % of untreated ([3]; dose 4 (4x, 320 g ai/ha)): 15.0%
- plant height 14 days after treatment, % of untreated ([3]; dose 4 (4x, 320 g ai/ha)): 14.58%
